Source: article doi:10.1101/2024.08.19.608619, “Discovery of potent SARS-CoV-2 nsp3 macrodomain inhibitors uncovers lack of translation to cellular antiviral response” (bioRxiv, 2024)
pEC50: −log10 of the molar value. Several values for one entry are separate records, joined by “and”; a condition that tells them apart may be missing. Identical values can stand only once.

Legend:
NMDA = assay: In vitro CEREP profiling, NMDA (antagonist radioligand); assay type: binding; conditions: test compound 10 uM
Description: (§1) Supplement media-1.zip/Safety_Panel_Profile.csv, table | column: perc_inhibition

[1] = target: T1, norepinephrine transporter (h) (Homo sapiens, UniProt P23975); assay: In vitro CEREP profiling, norepinephrine transporter (h) (antagonist radioligand); assay type: binding; conditions: test compound concentration 10 uM
T1 construct: purchased Eurofins Cerep (SafetyScreen44), recognised from the panel format
Description: as §1

[2] = In vitro rat SD liver microsomal stability; assay type: in vitro ADME
Description: (§2) Supplement media-1.zip/Hepatic_Microsomal_Stability.csv, table | column: clint; t_half

Na+ channel (site 2) = assay: In vitro CEREP profiling, Na+ channel (site 2) (antagonist radioligand); assay type: binding; conditions: test compound concentration 10 uM
Description: as §1

[3] = Hepatic microsomal stability, MLM; assay type: in vitro ADME; conditions: In vitro mouse liver microsomal stability
KV channel = assay: In vitro CEREP profiling, KV channel (antagonist radioligand); assay type: binding; conditions: test compound concentration 10 uM
Description: as §1

[4] = system: SARS-CoV-2, isolate USA-WA1/2020; assay: microbe, parasite or virus in culture; assay type: cell-based; conditions: HeLa-ACE2 SARS-CoV-2 antiviral effect without P-gp inhibitor
GR (h) = target: T2, GR (h) (Homo sapiens, UniProt P04150); assay: In vitro CEREP profiling, GR (h) (agonist radioligand); assay type: binding; conditions: test compound concentration 10 uM
T2 construct: purchased Eurofins Cerep (SafetyScreen44), recognised from the panel format
T2 sequence (P04150 1-777): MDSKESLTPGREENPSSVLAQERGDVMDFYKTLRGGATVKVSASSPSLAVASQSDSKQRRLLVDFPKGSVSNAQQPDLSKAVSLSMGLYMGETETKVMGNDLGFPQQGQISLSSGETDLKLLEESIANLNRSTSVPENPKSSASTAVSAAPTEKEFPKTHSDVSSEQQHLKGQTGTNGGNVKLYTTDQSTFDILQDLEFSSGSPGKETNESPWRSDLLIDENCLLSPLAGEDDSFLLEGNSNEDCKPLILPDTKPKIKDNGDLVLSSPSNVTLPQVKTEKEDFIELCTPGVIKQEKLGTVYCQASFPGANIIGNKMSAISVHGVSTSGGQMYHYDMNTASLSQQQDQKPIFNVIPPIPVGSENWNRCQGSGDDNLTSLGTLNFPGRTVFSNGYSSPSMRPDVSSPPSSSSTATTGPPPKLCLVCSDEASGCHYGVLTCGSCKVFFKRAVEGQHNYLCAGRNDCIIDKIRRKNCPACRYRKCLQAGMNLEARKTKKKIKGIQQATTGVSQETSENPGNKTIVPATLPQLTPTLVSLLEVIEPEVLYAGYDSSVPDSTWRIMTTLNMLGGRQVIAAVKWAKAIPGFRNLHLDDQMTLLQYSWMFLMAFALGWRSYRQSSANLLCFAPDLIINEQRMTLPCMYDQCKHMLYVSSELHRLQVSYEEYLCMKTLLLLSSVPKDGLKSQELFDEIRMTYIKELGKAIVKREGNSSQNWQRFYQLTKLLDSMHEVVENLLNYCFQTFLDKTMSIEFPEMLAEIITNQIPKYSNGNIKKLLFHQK
Description: as §1

A2A (h) = target: T3, A2A (h) (Homo sapiens, UniProt P29274); assay: In vitro CEREP profiling, A2A (h) (agonist radioligand); assay type: binding; conditions: test compound 10 uM
T3 construct: purchased Eurofins Cerep (SafetyScreen44), recognised from the panel format
Description: as §1

CB1 (h) = target: T4, CB1 (h) (Homo sapiens, UniProt P21554); assay: In vitro CEREP profiling, CB1 (h) (agonist radioligand); assay type: binding; conditions: test compound 10 uM
T4 construct: purchased Eurofins Cerep (SafetyScreen44), recognised from the panel format
Description: as §1

in vitro = conditions: human, hela-ace2 cells, 50.0
Protein binding = assay type: in vitro ADME
Description: Supplement media-1.zip/Protein_Binding.csv, table | column: fu; perc_bound; perc_free; perc_recovered

MERS-CoV = assay: microbe, parasite or virus in culture; assay type: cell-based; conditions: Vero E6/TMPRSS2 MERS-CoV antiviral effect with P-gp inhibitor
PDE4D2 (h) = target: T5, PDE4D2 (h) (Homo sapiens, UniProt Q08499); assay: In vitro CEREP profiling, PDE4D2 (h); assay type: biochemical; conditions: test compound concentration 10 uM; Enzyme and Cell-based assays
T5 construct: purchased Eurofins Cerep (SafetyScreen44), recognised from the panel format
Description: as §1

BZD (central) = assay: In vitro CEREP profiling, BZD (central) (agonist radioligand); assay type: binding; conditions: test compound 10 uM
Description: as §1

5-HT2B (h) = target: T6, 5-HT2B (h) (Homo sapiens, UniProt P41595); assay: In vitro CEREP profiling, 5-HT2B (h) (agonist radioligand); assay type: binding; conditions: test compound concentration 10 uM
T6 construct: purchased Eurofins Cerep (SafetyScreen44), recognised from the panel format
Description: as §1

[5] = In vitro dog hepatocyte stability; assay type: in vitro ADME
Description: (§3) Supplement media-1.zip/Hepatocyte_Stability.csv, table | column: clint; t_half

[6] = In vitro human hepatocyte stability; assay type: in vitro ADME
Description: as §3

[7] = In vitro dog liver microsomal stability; assay type: in vitro ADME
Description: as §2

D1 (h) = target: T7, D1 (h) (Homo sapiens, UniProt P21728); assay: In vitro CEREP profiling, D1 (h) (antagonist radioligand); assay type: binding; conditions: test compound 10 uM
T7 construct: purchased Eurofins Cerep (SafetyScreen44), recognised from the panel format
Description: as §1

[8] = maximum measured response of dose series
[9] = minimum measured response of dose series
[10] = In vitro dog plasma protein binding
[11] = In vitro fetal calf serum protein binding
[12] = In vitro human plasma protein binding
[13] = In vitro mouse plasma protein binding
[14] = In vitro rat plasma protein binding

T5 sequence (Q08499 303-809): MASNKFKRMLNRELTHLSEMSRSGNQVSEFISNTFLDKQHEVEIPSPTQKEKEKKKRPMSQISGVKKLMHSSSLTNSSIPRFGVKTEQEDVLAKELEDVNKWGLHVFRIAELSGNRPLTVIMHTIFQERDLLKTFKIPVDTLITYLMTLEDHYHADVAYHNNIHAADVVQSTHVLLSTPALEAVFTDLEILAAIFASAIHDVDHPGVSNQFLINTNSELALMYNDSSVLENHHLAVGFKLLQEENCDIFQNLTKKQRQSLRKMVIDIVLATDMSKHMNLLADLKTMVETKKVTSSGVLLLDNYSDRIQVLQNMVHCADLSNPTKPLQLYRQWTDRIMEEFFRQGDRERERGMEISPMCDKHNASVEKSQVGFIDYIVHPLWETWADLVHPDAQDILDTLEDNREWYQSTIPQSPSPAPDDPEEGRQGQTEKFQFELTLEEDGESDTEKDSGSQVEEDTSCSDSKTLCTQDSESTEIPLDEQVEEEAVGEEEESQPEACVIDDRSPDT
T7 sequence (P21728 whole entry): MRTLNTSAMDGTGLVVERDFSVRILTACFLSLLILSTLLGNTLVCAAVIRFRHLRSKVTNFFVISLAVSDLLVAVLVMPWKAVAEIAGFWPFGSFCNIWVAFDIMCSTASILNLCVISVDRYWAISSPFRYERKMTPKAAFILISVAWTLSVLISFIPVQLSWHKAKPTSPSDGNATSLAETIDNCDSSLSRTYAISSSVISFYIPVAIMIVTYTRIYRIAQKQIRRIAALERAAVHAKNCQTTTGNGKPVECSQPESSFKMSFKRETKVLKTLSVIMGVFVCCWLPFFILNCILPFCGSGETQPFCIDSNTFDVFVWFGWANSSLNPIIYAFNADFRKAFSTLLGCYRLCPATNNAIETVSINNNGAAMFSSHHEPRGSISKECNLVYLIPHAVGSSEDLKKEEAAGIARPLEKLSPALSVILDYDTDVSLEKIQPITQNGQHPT
T1 sequence (P23975 whole entry): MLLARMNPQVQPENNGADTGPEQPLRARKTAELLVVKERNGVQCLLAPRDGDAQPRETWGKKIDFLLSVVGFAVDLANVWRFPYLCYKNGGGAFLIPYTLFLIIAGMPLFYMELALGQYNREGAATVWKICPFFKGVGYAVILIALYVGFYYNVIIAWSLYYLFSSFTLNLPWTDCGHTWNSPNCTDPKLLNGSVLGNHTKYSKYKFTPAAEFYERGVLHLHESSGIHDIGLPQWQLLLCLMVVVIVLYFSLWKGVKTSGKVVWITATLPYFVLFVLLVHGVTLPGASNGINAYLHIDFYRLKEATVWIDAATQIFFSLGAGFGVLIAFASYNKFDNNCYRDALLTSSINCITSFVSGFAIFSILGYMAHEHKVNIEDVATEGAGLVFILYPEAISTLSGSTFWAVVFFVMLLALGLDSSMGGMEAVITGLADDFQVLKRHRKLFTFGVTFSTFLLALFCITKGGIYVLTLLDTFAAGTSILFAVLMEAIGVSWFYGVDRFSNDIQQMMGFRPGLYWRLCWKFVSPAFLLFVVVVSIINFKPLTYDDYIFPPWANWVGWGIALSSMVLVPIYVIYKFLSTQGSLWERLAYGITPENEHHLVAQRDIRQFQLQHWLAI
T6 sequence (P41595 whole entry): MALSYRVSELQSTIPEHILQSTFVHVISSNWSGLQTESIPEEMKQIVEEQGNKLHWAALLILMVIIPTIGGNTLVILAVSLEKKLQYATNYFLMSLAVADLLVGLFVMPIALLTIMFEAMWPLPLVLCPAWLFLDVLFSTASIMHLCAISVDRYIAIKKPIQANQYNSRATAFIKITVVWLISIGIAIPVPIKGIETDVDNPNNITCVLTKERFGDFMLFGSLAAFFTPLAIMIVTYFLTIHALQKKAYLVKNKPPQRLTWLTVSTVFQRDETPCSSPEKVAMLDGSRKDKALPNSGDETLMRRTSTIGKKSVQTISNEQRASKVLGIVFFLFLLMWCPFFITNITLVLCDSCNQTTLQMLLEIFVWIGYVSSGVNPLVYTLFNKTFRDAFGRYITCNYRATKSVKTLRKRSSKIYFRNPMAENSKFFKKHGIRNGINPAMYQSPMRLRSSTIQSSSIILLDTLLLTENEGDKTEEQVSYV
T4 sequence (P21554 whole entry): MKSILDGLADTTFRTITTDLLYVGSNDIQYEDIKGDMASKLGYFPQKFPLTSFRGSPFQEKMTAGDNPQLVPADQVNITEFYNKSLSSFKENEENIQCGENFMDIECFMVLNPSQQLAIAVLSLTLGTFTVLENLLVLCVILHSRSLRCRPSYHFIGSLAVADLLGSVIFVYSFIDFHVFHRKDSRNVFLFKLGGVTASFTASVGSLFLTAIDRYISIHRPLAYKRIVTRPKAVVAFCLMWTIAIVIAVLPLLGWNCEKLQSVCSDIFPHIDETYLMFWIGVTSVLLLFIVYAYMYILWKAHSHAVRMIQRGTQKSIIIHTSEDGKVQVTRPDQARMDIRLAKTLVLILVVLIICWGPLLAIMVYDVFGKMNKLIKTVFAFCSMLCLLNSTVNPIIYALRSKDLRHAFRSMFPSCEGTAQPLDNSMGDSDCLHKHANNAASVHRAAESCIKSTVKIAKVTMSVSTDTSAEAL
T3 sequence (P29274 whole entry): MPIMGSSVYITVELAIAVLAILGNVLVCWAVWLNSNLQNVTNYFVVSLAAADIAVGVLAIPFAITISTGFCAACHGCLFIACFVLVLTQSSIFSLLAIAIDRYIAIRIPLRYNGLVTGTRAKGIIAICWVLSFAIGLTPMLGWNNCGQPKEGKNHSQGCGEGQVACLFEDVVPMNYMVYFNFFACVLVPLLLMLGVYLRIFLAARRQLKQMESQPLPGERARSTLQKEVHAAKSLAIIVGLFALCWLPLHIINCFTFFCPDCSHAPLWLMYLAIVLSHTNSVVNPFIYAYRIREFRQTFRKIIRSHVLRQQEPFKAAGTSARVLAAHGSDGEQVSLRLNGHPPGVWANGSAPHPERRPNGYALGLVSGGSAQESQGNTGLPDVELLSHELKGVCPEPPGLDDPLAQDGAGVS

COc1ccc([C@H](Cc2nnn[nH]2)NC(=O)c2ncnc3[nH]ccc23)cc1 [ASAP-0015381]
perc_inhibition (% inhibition of the binding of a ligand specific for each target) (NMDA): 9% | perc_inhibition (% inhibition of the binding of a ligand specific for each target) [1]: -5% | clint [2]: < 5.0 µL/min/mg | t_half [2]: > 139.0 min | perc_inhibition (% inhibition of the binding of a ligand specific for each target) (Na+ channel (site 2)): -3% | clint [3]: 7.0 µL/min/mg | perc_remaining [3]: 115.387% | t_half [3]: 205.885 min | perc_remaining_no_cofactor ([3]; no cofactor): 100.411% | perc_inhibition (% inhibition of the binding of a ligand specific for each target) (KV channel): -1% | perc_max_measured ([4]; maximum measured response): 102.013% | perc_max_measured [4, 8]: 116.588% | perc_min_measured ([4]; minimum measured response): 88.847% | perc_min_measured [4, 9]: 75.952% | pEC50 ([4]; read-out: ec50): < 4.70 | EC90 ([4]; read-out: ec90): > 20 µM | perc_inhibition (% inhibition of the binding of a ligand specific for each target) (GR (h)): 1% | perc_inhibition (% inhibition of the binding of a ligand specific for each target) (A2A (h)): -13% | perc_inhibition (% inhibition of the binding of a ligand specific for each target) (CB1 (h)): -8% | CC50 at 24 h (in vitro): > 20 µM | fu (Protein binding; [10]): 0.106 | perc_bound (Protein binding; [10]): 89.4% | perc_free (Protein binding; [10]): 10.6% | perc_recovered (Protein binding; [10]): 90.64% | fu (Protein binding; [11]): 0.061 | perc_bound (Protein binding; [11]): 93.9% | perc_free (Protein binding; [11]): 6.07% | perc_recovered (Protein binding; [11]): 101.6% | fu (Protein binding; [12]): 0.01 | perc_bound (Protein binding; [12]): 99.0% | perc_free (Protein binding; [12]): 1.01% | perc_recovered (Protein binding; [12]): 102.0% | fu (Protein binding; [13]): 0.306 | perc_bound (Protein binding; [13]): 69.4% | perc_free (Protein binding; [13]): 30.6% | perc_recovered (Protein binding; [13]): 84.29% | fu (Protein binding; [14]): 0.047 | perc_bound (Protein binding; [14]): 95.3% | perc_free (Protein binding; [14]): 4.69% | perc_recovered (Protein binding; [14]): 100.2% | perc_max_measured (MERS-CoV; [8]): 110.958% and 111.344% | perc_min_measured (MERS-CoV; [9]): 85.891% and 86.764% | pEC50 (MERS-CoV; read-out: ec50): < 5.30 | EC90 (MERS-CoV; read-out: ec90): > 5 µM | perc_inhibition: % inhibition of control enzyme activity, PDE4D2 (h) (PDE4D2 (h)): 41% | perc_inhibition (% inhibition of the binding of a ligand specific for each target) (BZD (central)): 0% | perc_inhibition (% inhibition of the binding of a ligand specific for each target) (5-HT2B (h)): -33% | clint [5]: < 3.0 uL/min/1E6 cells | t_half [5]: > 231.0 min | clint [6]: < 3.0 uL/min/1E6 cells | t_half [6]: > 231.0 min | clint [7]: < 5.0 µL/min/mg | t_half [7]: > 139.0 min | perc_inhibition (% inhibition of the binding of a ligand specific for each target) (D1 (h)): -18%
